Experimental data reported in patent US11155571B2, “Salt of pyranose-substituted heterocyclic compound, preparation method therefor and use thereof” (Yabao Pharmaceutical Group Co., Ltd., priority 2018, dated 2021).

Assay: Solubility in water
Type: physicochemical

solubility: < 2300 µg/mL
Compound: Cc1cccc2c1c(Cc1ccc(OCCCN3CCCC4(CCN(C(=O)CNC(=O)NCC(C)C)CC4)C3)cc1)cn2C1O[C@H](CO)[C@@H](O)[C@H](O)[C@H]1O (stereo partly shown) [compound represented by formula (II)]
